Patent publication US20040072907A1, “Antipicornaviral compounds, compositions containing them, and methods for their use” (priority 1997, published 2004)
Like-named read-outs stand apart in the source and are kept apart here.

Tests used:
HI-HeLa cells = experiment: Cytotoxicity in mock-infected HI-HeLa cells (XTT, antirhinoviral assay); format: cell-based
Description: (§1) In the Cell Protection Assay, the ability of compounds to protect cells against HRV infection was measured by the XTT dye reduction method. This method is described in Weislow, O. S., Kiser, R., Fine, D. L., Bader, J., Shoemaker, R. H., Boyd, M. R., J. Natl. Cancer Inst. 1989, 81, 577-586, the disclosure of which is incorporated herein by reference.
(§2) Infected or mock-infected cells were resuspended at 8×10^5 cells per mL and incubated with appropriate concentrations of compounds of formula I. Two days later, XTT/PMS was added to test plates, and the amount of formazan produced was quantified spectrophotometrically at 450/650 nm. […] The therapeutic index (TI) was calculated by dividing the CC50 by the EC50.
HRV stocks were propagated, and viral assays were performed in HI-HeLa cells (ATCC). Cells were grown in Minimal Essential Medium, available from Life Technologies, with 10% fetal bovine serum.

[1] = target: T1, Recombinant Rhinovirus 3C protease serotype 14 (Human rhinovirus 14, UniProt P03303); experiment: biochemical
T1 construct: Recombinant Rhinovirus 3C proteases from serotypes 14, 16, and 2; made in house

HRV serotype-14 = experiment: Antirhinoviral HI-HeLa cell culture assay (XTT cell protection), HRV-14; format: cell-based, human rhinovirus; details: HRV serotype-14, HI-HeLa cells, m.o.i. 0.13, two days, XTT; read-out: EC50
Description: as §1, §2
(§3) All strains of human rhinovirus (HRV) for use in this assay were purchased from American Type Culture Collection (ATCC) except for HRV serotype-14, which was produced from the infectious cDNA clone constructed and supplied to Applicants by Dr. Robert Rueckert at the Institute for Molecular Virology, University of Wisconsin, Madison, Wis. HRV stocks were propagated, and viral assays were performed in HI-HeLa cells (ATCC). Cells were grown in Minimal Essential Medium, available from Life Technologies, with 10% fetal bovine serum.
(§4) The compounds were tested against control compounds WIN 51711, WIN 52084, and WIN 54954, all obtained from Sterling-Winthrop Pharmaceuticals, and control compound Pirodavir, obtained from Janssen Pharmaceuticals. Antiviral data obtained for the test compounds are shown in Table 2 where all data are for HRV serotype-14 unless otherwise noted in parentheses.

HRV serotype 39 = experiment: Antirhinoviral HI-HeLa cell culture assay (XTT cell protection), HRV-39; format: cell-based, human rhinovirus; details: HRV serotype 39, HI-HeLa cells
Description: as §1, §2, §3, §4

[2] = target: Recombinant Rhinovirus 3C protease serotype 16 (Human rhinovirus 16, UniProt Q82122); format: biochemical
Description: Stock solutions (50 mM, in DMSO) of various compounds were prepared; dilutions were in the same solvent. […] Assays contained 2% DMSO, 50 mM tris pH 7.6, 1 mM EDTA, a compound at the indicated concentrations, approximately 1 μM substrate, and 50-100 nM protease. […] The kobs/I values were obtained from reactions initiated by addition of enzyme rather than substrate. RVP activity is measured in the fluorescence resonance energy transfer assay. […] In the uncleavaed peptide, the EDANS fluorescence was quenched by the proximal DABCYL moiety. When the peptide was cleaved, the quenching was relieved, and activity was measured as an increase in fluorescence signal.
In the above table, all data are for RVP serotype-14 unless otherwise noted in parentheses. All strains of human rhinovirus (HRV) were purchased from American Type Culture Collection (ATCC) except for serotype 14, which was produced from the infectious cDNA clone constructed and supplied to Applicants by Dr. Robert Rueckert at the Institute for Molecular Virology, University of Wisconsin, Madison, Wis. The column designated INHIB represents the percent inhibition at 10 minute preincubation with 50 nM RVP prior to addition of substrate. The data in the column designated kobs/I was measured from progress curves enzyme start experiments.

[3] = target: T2, Recombinant Rhinovirus 3C protease serotype 2 (Human rhinovirus 2, UniProt P04936); format: biochemical
T2 construct: Recombinant Rhinovirus 3C proteases from serotypes 14, 16, and 2; made in house

[4] = RVP serotype-14, progress curves, enzyme start experiments
[5] = mock-infected HI-HeLa cells, line for HRV serotype-14, read-out: CC50
[6] = mock-infected HI-HeLa cells, line for HRV serotype 2, read-out: CC50
[7] = mock-infected HI-HeLa cells, line for HRV serotype 39, read-out: CC50

T1 sequence (P03303 1538-1719): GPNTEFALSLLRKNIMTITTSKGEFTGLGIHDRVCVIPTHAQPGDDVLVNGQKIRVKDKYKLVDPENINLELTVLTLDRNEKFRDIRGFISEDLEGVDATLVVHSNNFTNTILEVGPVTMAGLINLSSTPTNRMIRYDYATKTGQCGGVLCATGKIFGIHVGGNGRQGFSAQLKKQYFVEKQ
T2 sequence (P04936 1508-1690): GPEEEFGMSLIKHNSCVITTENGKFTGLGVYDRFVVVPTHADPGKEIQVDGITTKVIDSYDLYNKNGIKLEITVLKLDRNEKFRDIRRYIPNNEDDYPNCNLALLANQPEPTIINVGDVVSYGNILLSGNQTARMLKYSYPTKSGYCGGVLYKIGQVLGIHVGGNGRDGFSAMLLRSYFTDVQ
Sequence of Recombinant Rhinovirus 3C protease serotype 16 (Q82122 1511-1693): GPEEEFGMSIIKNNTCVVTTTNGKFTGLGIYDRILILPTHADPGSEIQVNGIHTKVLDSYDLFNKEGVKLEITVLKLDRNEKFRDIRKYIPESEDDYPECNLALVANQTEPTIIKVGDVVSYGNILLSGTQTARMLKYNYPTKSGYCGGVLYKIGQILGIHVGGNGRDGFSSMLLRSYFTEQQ

Row | Molecule | kobs/I [1, 4] | EC50 (HRV serotype-14) [nM] | CC50 (HI-HeLa cells; [5]) [nM] | kobs/I [1] | further results
1 | CCOC(=O)/C=C/C(CCC(N)=O)NC(=O)C(CC(=O)C(NC(=O)CC1CCCC1)C(C)C)Cc1ccc(C)cc1 (stereo not drawn) [Compound 23] | 36,500 M^−1sec^−1 | 20900 | – | – | CC50 (HI-HeLa cells): > 10000 nM
2 | CCOC(=O)/C=C/C(CCC(N)=O)NC(=O)C(CC(=O)C(Cc1ccccc1)NC(=O)SC1CCCC1)Cc1ccc(F)cc1 [Compound 18, Ethyl-3-(CyPentylSCO-L-PheΨ[COCH2]-L-(p-F)Phe-L-Gln)-E-Propenoate] | 127,400 M^−1sec^−1 | 480 | > 3000 | – | –
3 | CCOC(=O)/C=C/[C@H](CCC(N)=O)NC(=O)[C@@H](CC(=O)[C@@H](NC(=O)SCC)C(C)C)Cc1ccc(F)cc1 [Compound 13, Ethyl-3-(EtSCO-L-ValΨ[COCH2]-L-(p-F)Phe-L-Gln)-E-Propenoate] | – | – | > 3000 | – | –
4 | Cc1cc(CCCCCCCOc2ccc(C3=NCCO3)cc2)on1 [WIN 51711, reference compound] | – | 780 | > 60000 | – | –
5 | Ethyl-3-(CyPentylSCO-L-CyhexΨ[COCH2]-L-(p-F)Phe-L-Gln)-E-Propenoate [Compound 24] | – | – | > 3000 | – | –
6 | CC(=O)N1CC/C(=C\C(CCC(N)=O)NC(=O)C(CC(=O)C(NC(=O)SC2CCCC2)C(C)C)Cc2ccc(C)cc2)C1=O [Compound 17, [CyPentylSCO-L-ValΨ[COCH2]-L-(p-CH3)Phe-L-Gln]-E-1-Acetyl-3-methylene-pyrrolidin-2-one] | – | 27 | > 10000 | – | CC50 (HI-HeLa cells; [6]): > 10000 nM; CC50 (HI-HeLa cells; [7]): > 10000 nM; EC50 (HRV serotype 39): 480 nM
7 | CCOC(=O)/C=C/C(CCC(N)=O)NC(=O)C(CC(=O)C(NC(=O)SC1CCCC1)C(C)C)Cc1ccc(C)cc1 [Compound 11, Ethyl-3-(CyPentylSCO-L-ValΨ[COCH2]-L-(p-CH3)Phe-L-Gln)-E-Propenoate] | – | – | – | 850,000 M^−1sec^−1 | CC50 (HI-HeLa cells; mock-infected HI-HeLa cells, line for HRV serotype 1A, read-out: CC50): > 3000 nM; CC50 (HI-HeLa cells; [6]): > 3000 nM; CC50 (HI-HeLa cells; mock-infected HI-HeLa cells, line for HRV serotype 10, read-out: CC50): > 3000 nM; CC50 (HI-HeLa cells; mock-infected HI-HeLa cells, line for HRV serotype 16, read-out: CC50): > 3000 nM; CC50 (HI-HeLa cells; [7]): > 3000 nM
8 | CCOC(=O)/C=C/C(CCC(N)=O)NC(=O)C(CC(=O)C(NC(=O)SCc1ccccc1)C(C)C)Cc1ccccc1 [Compound 5, Ethyl-3-(BnSCO-L-ValΨ[COCH2]-L-Phe-L-Gln)-E-Propenoate] | – | – | – | 500,000 M^−1sec^−1 | kobs/I [2]: 89,700 M^−1sec^−1; kobs/I [3]: 26,900 M^−1sec^−1
9 | CCOC(=O)/C=C/[C@H](CCC(N)=O)NC(=O)[C@@H](CC(=O)[C@@H](NC(=O)SCC)C(C)C)Cc1ccc(C(F)(F)F)cc1 [Compound 15, Ethyl-3-(EtSCO-L-ValΨ[COCH2]-L-(p-CF3)Phe-L-Gln)-E-Propenoate] | 127,000 M^−1sec^−1 | 63 | > 1000 | – | –
10 | CCOC(=O)/C=C/C(CCC(N)=O)NC(=O)C(CC(=O)C(CC(C)C)NC(=O)SCc1ccccc1)Cc1ccccc1 [Compound 6, Ethyl-3-(BnSCO-L-LeuΨ[COCH2]-L-Phe-L-Gln)-E-Propenoate] | – | – | – | 87,600 M^−1sec^−1 | kobs/I [2]: 23,230 M^−1sec^−1; kobs/I [3]: 13,350 M^−1sec^−1
